This note sets out measurements from patent US20240238424A1, “HETEROBIFUNCTIONAL COMPOUNDS AND METHODS OF TREATING DISEASE” (Halda Therapeutics OpCo, Inc., priority 2021, published 2024).

Common to all, as to format: cell-based
One assay deals with 22RV1 cells. Description: Cellular growth inhibition assay (CTG), 22RV1 cells. Conditions: Homo sapiens, CellTiter-Glo 2.0, day-5. On the procedure: (§1) Cells were seeded in Poly-D-lysine-treated 384-well white plates, with 25 μL cell suspension at 250 cells/well for continuous treatments, and 1000 cells/well for washout treatments. Plates were spun at 300×g for 3 minutes, and cells were cultured at 37° C. with 5% CO2 in a humidified tissue culture incubator.
(§2) After 24 hours, the test compounds were diluted with cell culture medium in 96 deep well plates. DMSO was used as a negative control. A 25 μL aliquot of compound-containing medium was added in each well, at a final top concentration of 10 μM or 30 μM test compound, with 3-fold dilutions. For washout assays, after 4 hours, cell medium with compound was removed, and the cells were washed with 75p L fresh medium. Plates were then spun at 300×g for 3 minutes and replaced with 50 μL fresh medium in each well. Plates were then spun at 300×g for 3 minutes again and cultured at 37° C. with 5% CO2.
(§3) At day-0 and day-5 of compound treatments, cell viability was quantified with CellTiter-Glo 2.0 (Promega). After equilibrating cell plates at room temperature for 30 minutes, 25 μL CellTiter-Glo 2.0 reagent was dispensed into each well (on top of 50 μL of cell culture). Plates were mixed on a shaker for 2 minutes at 500 rpm, followed by a 10-minute incubation at room temperature. Luminescence readings were measured with an EnVision Plate Reader. Data was normalized to DMSO treated day-0 cell wells. A four-parameter non-linear regression curve fit was applied to dose-response data in Prism to determine the half maximal growth inhibitory concentration (GI50) of each compound.

The next assay addresses T1, GSPT1 (Homo sapiens, UniProt P15170+Q96SW2).
T1 construct: host or cells: HEK293 LgBiT cell line
Description: GSPT1 HiBit degradation assay. Conditions: HEK293 LgBiT cells expressing GSPT1_HiBiT, luminescence after 6 hours. The procedure, abridged:
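HEK293 cells stably expressing LgBiT and GSPT1-HiBiT, seeded 18-24 h before dosing, were treated with titrated compound plus endurazine (0.5× final) at 37 °C. Luminescence loss after 6 h reflects GSPT1 degradation; DC50 is the concentration giving 50% degradation.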

The next assay has as its system U937 cells. Description: Cellular growth inhibition assay (CTG), U937 cells. Conditions: Homo sapiens, U-937, CellTiter-Glo 2.0, day-5. As to the method: as §1, §2, §3
The test system of assay [1] is 293 mutant EGFR_T790M L858R Cells. Description: Cellular growth inhibition assay (CTG), 293 mutant EGFR_T790M L858R cells. Conditions: 293 mutant EGFR T790M L858R cells, CellTiter-Glo 2.0, day-5. As to the method:
as §1, §2, §3

T1 sequence (P15170 whole entry): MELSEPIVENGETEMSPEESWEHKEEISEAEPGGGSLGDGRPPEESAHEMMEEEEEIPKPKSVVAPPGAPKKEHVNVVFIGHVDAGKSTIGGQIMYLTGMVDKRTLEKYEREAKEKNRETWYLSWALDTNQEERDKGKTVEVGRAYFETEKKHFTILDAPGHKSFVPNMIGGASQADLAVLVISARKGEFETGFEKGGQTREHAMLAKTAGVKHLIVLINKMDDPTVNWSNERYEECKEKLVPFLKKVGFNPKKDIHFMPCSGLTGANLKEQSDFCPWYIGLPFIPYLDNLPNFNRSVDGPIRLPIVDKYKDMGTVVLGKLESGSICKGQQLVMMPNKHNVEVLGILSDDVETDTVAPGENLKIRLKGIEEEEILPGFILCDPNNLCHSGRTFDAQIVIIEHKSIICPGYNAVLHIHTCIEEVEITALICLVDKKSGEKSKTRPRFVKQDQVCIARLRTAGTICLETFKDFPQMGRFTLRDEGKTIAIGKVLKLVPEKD
T1 sequence (Q96SW2 whole entry): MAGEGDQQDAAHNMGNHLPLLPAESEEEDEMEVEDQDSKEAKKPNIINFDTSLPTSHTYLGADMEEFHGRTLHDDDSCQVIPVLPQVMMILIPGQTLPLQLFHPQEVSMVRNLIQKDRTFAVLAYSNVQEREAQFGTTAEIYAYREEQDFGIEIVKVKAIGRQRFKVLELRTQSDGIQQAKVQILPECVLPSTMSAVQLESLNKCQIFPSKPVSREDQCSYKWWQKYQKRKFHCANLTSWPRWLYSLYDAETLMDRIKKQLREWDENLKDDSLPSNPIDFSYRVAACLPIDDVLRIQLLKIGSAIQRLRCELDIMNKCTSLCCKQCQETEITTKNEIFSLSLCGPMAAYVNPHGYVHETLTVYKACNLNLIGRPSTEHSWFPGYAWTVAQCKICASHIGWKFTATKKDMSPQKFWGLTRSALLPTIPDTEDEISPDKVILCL
T1 sequence (Q16531 whole entry partner): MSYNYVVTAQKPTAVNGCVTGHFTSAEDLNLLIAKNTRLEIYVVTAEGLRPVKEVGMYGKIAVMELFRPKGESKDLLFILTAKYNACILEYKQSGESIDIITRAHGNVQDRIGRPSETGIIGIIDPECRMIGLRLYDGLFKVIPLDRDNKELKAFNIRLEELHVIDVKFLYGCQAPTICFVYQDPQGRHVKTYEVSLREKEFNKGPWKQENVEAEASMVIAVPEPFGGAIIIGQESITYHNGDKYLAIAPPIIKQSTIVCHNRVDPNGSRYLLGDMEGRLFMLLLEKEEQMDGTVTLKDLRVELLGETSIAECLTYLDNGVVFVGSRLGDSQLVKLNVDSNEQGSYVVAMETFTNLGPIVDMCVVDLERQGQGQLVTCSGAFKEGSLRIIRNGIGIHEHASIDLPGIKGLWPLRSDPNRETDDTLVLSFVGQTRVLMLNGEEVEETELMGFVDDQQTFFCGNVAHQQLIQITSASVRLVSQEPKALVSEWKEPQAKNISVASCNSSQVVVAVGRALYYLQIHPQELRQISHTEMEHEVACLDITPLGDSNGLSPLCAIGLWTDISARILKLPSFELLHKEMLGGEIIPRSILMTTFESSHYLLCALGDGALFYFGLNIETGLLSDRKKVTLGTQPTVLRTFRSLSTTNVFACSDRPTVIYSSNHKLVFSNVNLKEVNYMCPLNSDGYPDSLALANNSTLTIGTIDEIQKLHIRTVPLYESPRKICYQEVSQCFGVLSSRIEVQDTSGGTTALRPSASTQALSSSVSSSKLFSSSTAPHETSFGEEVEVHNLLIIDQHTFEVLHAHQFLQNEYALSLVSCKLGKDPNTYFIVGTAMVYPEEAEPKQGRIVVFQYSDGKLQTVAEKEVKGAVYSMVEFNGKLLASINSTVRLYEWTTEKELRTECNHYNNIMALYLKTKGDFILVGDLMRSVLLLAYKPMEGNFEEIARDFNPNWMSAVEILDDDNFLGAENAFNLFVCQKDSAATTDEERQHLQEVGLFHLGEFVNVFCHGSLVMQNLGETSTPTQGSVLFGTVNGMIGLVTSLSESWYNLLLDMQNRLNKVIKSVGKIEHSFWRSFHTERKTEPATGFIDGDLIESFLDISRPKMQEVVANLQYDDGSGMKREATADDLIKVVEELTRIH

Broadly, the GI50 is the concentration at which growth is held to half of that of the control. The DC50 is the concentration at which degradation of the target reaches its halfway point. In the assay with 22RV1 cells, `CC1(C)[C@H](NC(=O)c2ccc(OCCOCCOCCOCCOCCOCCOCCOc3cc(Cl)cc(NC(=O)NCc4ccc5c(c4)CN(C4CCC(=O)NC4=O)C5=O)c3)cc2)C(C)(C)[C@H]1Oc1ccc(C#N)c(Cl)c1` (stereo partly drawn) [Compound I-19, N-((1r,3r)-3-(3-chloro-4-cyanophenoxy)-2,2,4,4-tetramethylcyclobutyl)-4-((20-(3-chloro-5-(3-((2-(2,6-dioxopiperidin-3-yl)-1-oxoisoindolin-5-yl)methyl)ureido)phenoxy)-3,6,9,12,15,18-hexaoxaicosyl)oxy)benzamide] yielded a GI50 below 100 nM. In addition, the DC50 at GSPT1 (Table 3) fell in the range of 250 to 5000 nM.

Turning to `CC1(C)[C@H](NC(=O)c2ccc(OCCOCCOCCOCCOCCOCCOCCOCCOCCOc3cc(Cl)cc(NC(=O)NCc4ccc5c(c4)CN(C4CCC(=O)NC4=O)C5=O)c3)cc2)C(C)(C)[C@H]1Oc1ccc(C#N)c(Cl)c1` (stereo partly drawn) [Compound I-20, N-[3-(3-chloro-4-cyano-phenoxy)-2,2,4,4-tetramethyl-cyclobutyl]-4-[2-[2-[2-[2-[2-[2-[2-[2-[2-[3-chloro-5-[[2-(2,6-dioxo-3-piperidyl)-1-oxo-isoindolin-5-yl]methylcarbamoylamino]phenoxy]ethoxy]ethoxy]ethoxy]ethoxy]ethoxy]ethoxy]ethoxy]ethoxy]ethoxy]benzamide], in the assay with 22RV1 cells, the GI50 was below 100 nM. For the same compound, the DC50 at GSPT1 (Table 3) was in the range of 250 to 5000 nM. On the same counts, the results for `CC1(C)[C@H](NC(=O)c2ccc(OCCOCCOCCOCCOCCOCCOCCOCCOCCOCCOCCOc3cc(Cl)cc(NC(=O)NCc4ccc5c(c4)CN(C4CCC(=O)NC4=O)C5=O)c3)cc2)C(C)(C)[C@H]1Oc1ccc(C#N)c(Cl)c1` (stereo partly drawn) [Compound I-21, N-[3-(3-chloro-4-cyano-phenoxy)-2,2,4,4-tetramethyl-cyclobutyl]-4-[2-[2-[2-[2-[2-[2-[2-[2-[2-[2-[2-[3-chloro-5-[[2-(2,6-dioxo-3-piperidyl)-1-oxo-isoindolin-5-yl]methylcarbamoylamino]phenoxy]ethoxy]ethoxy]ethoxy]ethoxy]ethoxy]ethoxy]ethoxy]ethoxy]ethoxy]ethoxy]ethoxy]benzamide] are 100 to 1000 nM and 250 to 5000 nM. On to `CC1(C)[C@H](NC(=O)c2ccc(OCCOCCOCCOCCOCCOCCOCCc3cc(Cl)cc(NC(=O)NCc4ccc5c(c4)CN(C4CCC(=O)NC4=O)C5=O)c3)cc2)C(C)(C)[C@H]1Oc1ccc(C#N)c(Cl)c1` (stereo partly drawn) [Compound I-22, N-((1r,3r)-3-(3-chloro-4-cyanophenoxy)-2,2,4,4-tetramethylcyclobutyl)-4-((20-(3-chloro-5-(3-((2-(2,6-dioxopiperidin-3-yl)-1-oxoisoindolin-5-yl)methyl)ureido)phenyl)-3,6,9,12,15,18-hexaoxaicosyl)oxy)benzamide], for which the GI50 with 22RV1 cells was below 100 nM. Also, the DC50 on GSPT1 (Table 3) was below 250 nM. Consider `Nc1ncnc2c1c(-c1ccc(Oc3ccccc3)cc1)nn2[C@@H]1CCCN(C(=O)/C=C/COCCOCCOCCOCCOCCOCCOCCOc2cc(Cl)cc(NC(=O)NCc3ccc4c(c3)CN(C3CCC(=O)NC3=O)C4=O)c2)C1` (stereo partly drawn) [Compound I-30], for which the GI50 in the assay on U937 cells was 100 to 1000 nM. `Nc1ncnc2c1c(-c1ccc(Oc3ccccc3)cc1)nn2[C@@H]1CCCN(C(=O)/C=C/COCCOCCOCCOCCOCCOCCOCCOCCOCCOc2cc(Cl)cc(NC(=O)NCc3ccc4c(c3)CN(C3CCC(=O)NC3=O)C4=O)c2)C1` (stereo partly drawn) [Compound I-31] gave a GI50 with U937 cells of 1000 to 5000 nM. The DC50 on GSPT1 (Table 3) lay in the range of 250 to 5000 nM. On to `Nc1ncnc2c1c(-c1ccc(Oc3ccccc3)cc1)nn2[C@@H]1CCCN(C(=O)/C=C/COCCOCCOCCOCCOCCOCCOCCOCCOCCOCCOCCOc2cc(Cl)cc(NC(=O)NCc3ccc4c(c3)CN(C3CCC(=O)NC3=O)C4=O)c2)C1` (stereo partly drawn) [Compound I-32], for which, in the assay on U937 cells, the GI50 lay within 1000 to 5000 nM.

For `CN(C/C=C/C(=O)N1CCC[C@@H](n2nc(-c3ccc(Oc4ccccc4)cc3)c3c(N)ncnc32)C1)CCOCCOCCOCCOCCCCCCCCc1cc(Cl)cc(NC(=O)NCc2ccc3c(c2)CN(C2CCC(=O)NC2=O)C3=O)c1` (stereo partly drawn) [Compound I-67], the GI50 in the assay with U937 cells is below 100 nM. The same compound had a DC50 at GSPT1 (Table 3) below 250 nM. On the same counts, the results for `CN(C/C=C/C(=O)N1CCC[C@@H](n2nc(-c3ccc(Oc4ccccc4)cc3)c3c(N)ncnc32)C1)CCOCCOCCOCCOCCOCCOCCCCCCCCc1cc(Cl)cc(NC(=O)NCc2ccc3c(c2)CN(C2CCC(=O)NC2=O)C3=O)c1` (stereo partly drawn) [Compound I-72] are below 100 nM and below 250 nM. On the same counts, the results for `CN(C/C=C/C(=O)N1CCC[C@@H](n2nc(-c3ccc(Oc4ccccc4)cc3)c3c(N)ncnc32)C1)CCOCCOCCOCCOCCOCCOCCOCCOCCCCCCCCc1cc(Cl)cc(NC(=O)NCc2ccc3c(c2)CN(C2CCC(=O)NC2=O)C3=O)c1` (stereo partly drawn) [Compound I-73] are below 100 nM and below 250 nM. Consider `CN(C/C=C/C(=O)N1CCC([C@@H]2CCNc3c(C(N)=O)c(-c4ccc(Oc5ccccc5)cc4)nn32)CC1)CCOCCOCCOCCOCCCCCCCCc1cc(Cl)cc(NC(=O)NCc2ccc3c(c2)CN(C2CCC(=O)NC2=O)C3=O)c1` (stereo partly drawn) [Compound I-74], for which the GI50 in the assay with U937 cells is below 100 nM. The compound further registered a DC50 at GSPT1 (Table 3) below 250 nM. On the same counts, the results for `CN(C/C=C/C(=O)N1CCC([C@@H]2CCNc3c(C(N)=O)c(-c4ccc(Oc5ccccc5)cc4)nn32)CC1)CCOCCOCCOCCOCCOCCOCCCCCCCCc1cc(Cl)cc(NC(=O)NCc2ccc3c(c2)CN(C2CCC(=O)NC2=O)C3=O)c1` (stereo partly drawn) [Compound I-75] are below 100 nM and below 250 nM.

Turning to `CN(C/C=C/C(=O)N1CCC([C@@H]2CCNc3c(C(N)=O)c(-c4ccc(Oc5ccccc5)cc4)nn32)CC1)CCOCCOCCOCCOCCOCCOCCOCCOCCCCCCCCc1cc(Cl)cc(NC(=O)NCc2ccc3c(c2)CN(C2CCC(=O)NC2=O)C3=O)c1` (stereo partly drawn) [Compound I-76], the GI50 in the assay on U937 cells is below 100 nM. For the same compound, the DC50 at GSPT1 (Table 3) was below 250 nM. Turning to `COc1nn(C)cc1Nc1nc(N2CC(NC(=O)/C=C/CN(C)CCOCCOCCOCCCCCc3cc(Cl)cc(NC(=O)NCc4ccc5c(c4)CN(C4CCC(=O)NC4=O)C5=O)c3)[C@H](F)C2)nc2c1ncn2C` (stereo partly drawn) [Compound I-150], the GI50 in assay [1] fell in the range of 1000 to 5000 nM. This compound also showed a DC50 at GSPT1 (Table 3A) of 250 to 5000 nM. For the compound `COc1cc(N(C)CCN(C)C)c(NC(=O)/C=C/CN(C)CCOCCOCCOCCOCCOCCCCCc2cc(Cl)cc(NC(=O)NCc3ccc4c(c3)CN(C3CCC(=O)NC3=O)C4=O)c2)cc1Nc1nccc(-c2cn(C)c3ccccc23)n1` (stereo not drawn) [Compound I-151], in assay [1], the concentration for 50% growth inhibition (GI50) is 100 to 1000 nM. Besides, the DC50 on GSPT1 (Table 3A) lay within 250 to 5000 nM.

In assay [1], `C=CC(=O)NC1CN(c2nc(Nc3cn(CCOCCOCCOCCOCCOCCCCCc4cc(Cl)cc(NC(=O)NCc5ccc6c(c5)CN(C5CCC(=O)NC5=O)C6=O)c4)nc3OC)c3ncn(C)c3n2)C[C@H]1F` (stereo partly drawn) [Compound I-155] had a GI50 of 100 to 1000 nM. This compound gave a DC50 on GSPT1 (Table 3A) below 250 nM. For `COc1nn(C)cc1Nc1nc(N2CC(NC(=O)/C=C/CN(C)CCOCCOCCOCCOCCOCCCCCc3cc(Cl)cc(NC(=O)NCc4ccc5c(c4)CN(C4CCC(=O)NC4=O)C5=O)c3)[C@H](F)C2)nc2c1ncn2C` (stereo partly drawn) [Compound I-159], the GI50 in assay [1] lay within 1000 to 5000 nM. Also, at GSPT1 (Table 3A), the DC50 is 250 to 5000 nM. `C=CC(=O)Nc1cc(Nc2nccc(-c3cn(C)c4ccccc34)n2)c(OC)cc1N(C)CCN(C)CCOCCOCCOCCOCCOCCOCCOCCOCCOCCCCCc1cc(Cl)cc(NC(=O)NCc2ccc3c(c2)CN(C2CCC(=O)NC2=O)C3=O)c1` (stereo not drawn) [Compound I-160]: the GI50 in assay [1] was 100 to 1000 nM. The DC50 at GSPT1 (Table 3A) was in the range of 250 to 5000 nM. In the case of `C=CC(=O)Nc1cc(Nc2nccc(-c3cn(C)c4ccccc34)n2)c(OC)cc1N(C)CCN(C)CCOCCOCCOCCOCCOCCOCCOCCOCCOCCOCCOCCCCCc1cc(Cl)cc(NC(=O)NCc2ccc3c(c2)CN(C2CCC(=O)NC2=O)C3=O)c1` (stereo not drawn) [Compound I-161], the GI50 in assay [1] fell in the range of 1000 to 5000 nM. The DC50 at GSPT1 (Table 3A) fell in the range of 250 to 5000 nM.
